In patent US10322132B2, “Prevention or treatment of uratic or gouty diseases” (SHANTON PHARMA CO., LTD., priority 2015, dated 2019):

Tests used:
[1] = tested on: MSU-induced gouty arthritis; assay: MSU-induced gouty arthritis, toe volume; type: in vivo, Male Wistar rats; settings: for Inhibition of toe volume change (%) / Toe volume change: 9 h after MSU; for Inhibition of toe volume change (%): vs model group; for effect on increase of the toe volumes in the test rats (in words): compared with the model group
Procedure: The experiment was done by reference to Hsin-Pai Lee, Shi-Ying Huang, Yen-You Lin. Soft Coral-Derived Lemnalol Alleviates Monosodium Urate-Induced Gouty Arthritis in Rats by Inhibiting Leukocyte Infiltration and iNOS, COX-2 and c-Fos Protein Expression. […] 2013, 11, 99-113.
One gram of uric acid was weighed, introduced into 200 mL of boiling water and heated. Then, NaOH (2 mol/L) was added until pH reached 9. The solution became clear, and was cooled at room temperature and then left still overnight. MSU was obtained after filtration, which was dried at 60° C. for 24 h and then sterilized at a high temperature of 180° C.
(§1) The toe volumes of the rats were measured one day prior to the experiment. The rats were administered with the solvent by subcutaneous injection in the model group at a dose of 5 mL/kg, while the rats were administered with test samples by subcutaneous injection in administration groups at a dose of 5 mg/kg. Rats were anesthetized immediately after administration and were injected with 0.09 mL of MSU suspension into the joint cavity of the left ankle. The volume of the left toe was measured in rats 9 h after the injection of MSU into the ankle joint cavity.
as §1, with “dose of 15 mL/kg, while” for “dose of 5 mL/kg, while”, “dose of 15 mg/kg or 10 mg/kg. Rats” for “dose of 5 mg/kg. Rats”
The toe volumes of rats were measured one day prior to the experiment. The rats were administered with the solvent by subcutaneous injection in the model group at a dose of 15 mL/kg, while the rats were administered with the test sample by subcutaneous injection in administration group at a dose of 15 mg/kg. Rats were anesthetized immediately after administration and were injected with 0.09 mL of MSU suspension into the joint cavity of the left ankle. The volume of the left toe in each rat was measured 9 h after the injection of MSU into the ankle joint cavity.

[2] = tested on: serum uric acid; assay: Uric acid-lowering experiment in cynomolgus monkeys; type: in vivo; set-up: Reduction rate of serum uric acid: concentration or dose not given beside the values; settings: for effect on serum uric acid levels in the test monkeys (in words): compared to the levels measured before administration; for Reduction rate of serum uric acid / Content of serum uric acid: intravenous
Procedure: The experiment was done by reference to Komoriya K, Osada Y, Hasegawa M, Horiuchi H, Kondo S, Couch R C, Griffin T B. Hypouricemic effect of allopurinol and the novel xanthine oxidase inhibitor TEI-6720 in chimpanzees. Eur J Pharmacol. 1993 Dec. 21; 250(3): 455-60.
Each compound was tested in three non-naïve cynomolgus monkeys (1 #, 2 # and 3 #), wherein the monkeys were administered with test samples by intravenous injection. Blood was collected from the vein before administration and 1 h, 3 h, 6 h and 24 h after administration. The blood was left still at room temperature. The serum was collected by centrifugation. The content of uric acid in serum was measured. Reduction rate of serum uric acid=(average uric acid content before administration−average uric acid content after administration)/average uric acid content before administration*100%.

[3] = tested on: MSU-induced gouty arthritis; assay: Pain value in rats with gouty arthritis (electronic Von Frey pain threshold detector); type: in vivo, Male Wistar rats; settings: for Pain value: Example 5, 15 mg/kg subcutaneous, left foot, Von Frey; for effect on pain values in the test rats (in words): Example 5, compared with the model group
Procedure: The rats with gouty arthritis were placed in a metabolic cage, and the palm center of the left foot of each rat was irritated with an electronic Von Frey pain threshold detector. The maximum stress value was recorded when each rat withdrew its foot, and the value was the pain value of that rat.

[4] = tested on: IFNγ; assay: ConA-induced IFNγ release; type: in vivo, Male C57BL/6 mice; settings: for inhibition (%): IFN-γ in serum vs model group, 20 mg/kg subcutaneous; for effect on content of IFNγ in the serum of the test mice (in words): compared with the model group; for Content of IFN-γ: serum, 20 mg/kg subcutaneous 30 min before ConA 15 mg/kg tail vein, 3 h after ConA
Procedure: The experiment was conducted by reference to Dalya R. Soondl, Elisa Bjørgo, etc. PI3K p110δ regulates T cell cytokine production during primary and secondary immune responses in mice and humans. Blood. Author manuscript; available in PMC 2013 Mar. 11; and Gabriele Sass, Sonja Heinlein, etc. CYTOKINE EXPRESSION IN THREE MOUSE MODELS OF EXPERIMENTAL HEPATITIS. CYTOKINE, Vol. 19, No. 3 (7 Aug.), 2002: pp 115-120.
The C57BL/6 mice were raised in the SPF-grade animal room for 1 week, and were then randomly divided into the corresponding model group and the administration groups according to the body weight. The […] were administered with ConA by the tail vein injection at a dose of 15 mg/kg 30 min after the administration of the solvent or the test samples by subcutaneous injection at a dose of 20 mg/kg. After the mice were anesthetized with sodium pentobarbital (45 mg/kg by intraperitoneal injection) 3 h after administration of ConA, the blood was collected by cardiac puncture. The blood was placed in the centrifuge tube without anticoagulant and left still at room temperature. One hour later, the blood was centrifuged. The serum was extracted and stored at −80° C. The content of IFNγ (γ-interferon) in the serum was detected by a Mouse IFNγ Elisa

[5] = Pharmacokinetics experiment in cynomolgus monkeys, intravenous; type: in vivo, cynomolgus monkeys (Macaca fascicularis); settings: 5 mg/kg, Mean ± SD, n = 3
Procedure: Three non-naïve cynomolgus monkeys were administered with test compounds A, B and D at a dose of 5 mg/kg by intravenous injection and with test compound C at a dose of 3 mg/kg by intravenous injection, with one compound being tested at a time. Blood was collected from the vein before administration and 1 h, 3 h, 6 h and 24 h after administration, and plasma was isolated. The plasma was analyzed by a 4000 Q Trap LC-MS/MS instrument. The concentrations of the test samples were output by Analyst 1.6.1 from AB Company. The parameters ( ) such as the mean, standard deviation, and coefficient of variation were calculated using Microsoft Excel, wherein the values directly output by Analyst 1.6.1 requires no calculation. PK parameters were calculated using Pharsight Phoenix 6.2 software (NCA model).

[6] = Example 5, 15 mg/kg or 10 mg/kg
[7] = Example 5, 15 mg/kg subcutaneous
[8] = 3 h after administration vs before administration, animal 1#
[9] = 3 h after administration vs before administration, animal 2#
[10] = 3 h after administration vs before administration, mean
[11] = 3 h after administration, animal 1#
[12] = 3 h after administration, animal 2#

SMILES: CCCCCn1c(=O)[nH]c(=O)c2[nH]c(Cl)nc21 [Compound A, 8-chloro-3-pentyl-3,7-dihydro-1H-purine-2,6-dione]
- Change of toe volume ([1]; Example 4, 5 mg/kg subcutaneous, 9 h after MSU injection into left ankle joint cavity): 0.416 mL
- Inhibition of toe volume change (%) ([1]; Example 4, 5 mg/kg subcutaneous): 17.5%
- effect on increase of the toe volumes in the test rats (in words) ([1]; Example 4, 5 mg/kg): significantly inhibit
- effect on increase of the toe volumes in the test rats (in words) [1, 6]: significantly inhibit
- Toe volume change [1, 7]: 0.264 mL
- Inhibition of toe volume change (%) [1, 7]: 34.7%
- effect on serum uric acid levels in the test monkeys (in words) [2]: significantly reduce
- Reduction rate of serum uric acid [2, 8]: 18.5%
- Reduction rate of serum uric acid [2, 9]: 38.0%
- Reduction rate of serum uric acid ([2]; 3 h after administration vs before administration, animal 3#): 5.98%
- Reduction rate of serum uric acid [2, 10]: 22.8%
- Content of serum uric acid [2, 11]: 61.9 µmol/L
- Content of serum uric acid [2, 12]: 57.0 µmol/L
- Content of serum uric acid ([2]; 3 h after administration, animal 3#): 59.9 µmol/L
- Content of serum uric acid ([2]; 3 h after administration, mean): 59.6 µmol/L
- Reduction rate of serum uric acid ([2]; 6 h after administration vs before administration, animal 1#): 10.9%
- Reduction rate of serum uric acid ([2]; 6 h after administration vs before administration, animal 2#): 48.2%
- Reduction rate of serum uric acid ([2]; 6 h after administration vs before administration, animal 3#): 20.9%
- Reduction rate of serum uric acid ([2]; 6 h after administration vs before administration, mean): 28.5%
- Content of serum uric acid ([2]; 6 h after administration, animal 1#): 67.6 µmol/L
- Content of serum uric acid ([2]; 6 h after administration, animal 2#): 47.6 µmol/L
- Content of serum uric acid ([2]; 6 h after administration, animal 3#): 50.4 µmol/L
- Content of serum uric acid ([2]; 6 h after administration, mean): 55.2 µmol/L
- Pain value [3]: 47.51 g
- effect on pain values in the test rats (in words) [3]: significantly increase
- inhibition (%) [4]: 38.3%
- effect on content of IFNγ in the serum of the test mice (in words) [4]: significantly reduce
- Content of IFN-γ [4]: 2025 pg/mL
- t1/2z [5]: 14.55 ± 6.69 h

SMILES: CCCCCn1c(=O)n(C)c(=O)c2[nH]c(Cl)nc21 [Compound D, 8-chloro-1-methyl-3-pentyl-3,7-dihydro-1H-purine-2,6-dione]
- effect on increase of the toe volumes in the test rats (in words) [1, 6]: significantly inhibit
- Toe volume change [1, 7]: 0.232 mL
- Inhibition of toe volume change (%) [1, 7]: 42.6%
- effect on serum uric acid levels in the test monkeys (in words) [2]: significantly reduce
- Reduction rate of serum uric acid [2, 8]: 14.3%
- Reduction rate of serum uric acid [2, 9]: 13.6%
- Reduction rate of serum uric acid [2, 10]: 13.9%
- Content of serum uric acid [2, 11]: 49.6 µmol/L
- Content of serum uric acid [2, 12]: 47.1 µmol/L
- Content of serum uric acid ([2]; 3 h after administration, mean): 48.4 µmol/L
- Pain value [3]: 43.10 g
- effect on pain values in the test rats (in words) [3]: significantly increase
- inhibition (%) [4]: 35.8%
- effect on content of IFNγ in the serum of the test mice (in words) [4]: significantly reduce
- Content of IFN-γ [4]: 2108 pg/mL
- t1/2z [5]: 5.90 ± 0.42 h
